Reference: US12281057B2 (VERTEX PHARMACEUTICALS INCORPORATED, priority 2017, dated 2025)
pIC50: −log10 of the molar value.

biological target: T1, truncated form of human NaV 1.8 with full channel activity (Homo sapiens, UniProt Q9Y5Y9); assay: E-VIPR Assay Method A for detecting and measuring Nav inhibition (HEK cells, membrane potential FRET dyes, electrical stimulation); assay type: cell-based; settings: HEK cells expressing human NaV 1.8, HS (human serum) in compound loading buffer, 11 point dose response, top dose 3 μM, Table 20A, read-out: Nav 1.8 MedChem Optical Assay EVIPR Assay Method A HS IC50
T1 sequence (Q9Y5Y9 126-1722 limits assumed): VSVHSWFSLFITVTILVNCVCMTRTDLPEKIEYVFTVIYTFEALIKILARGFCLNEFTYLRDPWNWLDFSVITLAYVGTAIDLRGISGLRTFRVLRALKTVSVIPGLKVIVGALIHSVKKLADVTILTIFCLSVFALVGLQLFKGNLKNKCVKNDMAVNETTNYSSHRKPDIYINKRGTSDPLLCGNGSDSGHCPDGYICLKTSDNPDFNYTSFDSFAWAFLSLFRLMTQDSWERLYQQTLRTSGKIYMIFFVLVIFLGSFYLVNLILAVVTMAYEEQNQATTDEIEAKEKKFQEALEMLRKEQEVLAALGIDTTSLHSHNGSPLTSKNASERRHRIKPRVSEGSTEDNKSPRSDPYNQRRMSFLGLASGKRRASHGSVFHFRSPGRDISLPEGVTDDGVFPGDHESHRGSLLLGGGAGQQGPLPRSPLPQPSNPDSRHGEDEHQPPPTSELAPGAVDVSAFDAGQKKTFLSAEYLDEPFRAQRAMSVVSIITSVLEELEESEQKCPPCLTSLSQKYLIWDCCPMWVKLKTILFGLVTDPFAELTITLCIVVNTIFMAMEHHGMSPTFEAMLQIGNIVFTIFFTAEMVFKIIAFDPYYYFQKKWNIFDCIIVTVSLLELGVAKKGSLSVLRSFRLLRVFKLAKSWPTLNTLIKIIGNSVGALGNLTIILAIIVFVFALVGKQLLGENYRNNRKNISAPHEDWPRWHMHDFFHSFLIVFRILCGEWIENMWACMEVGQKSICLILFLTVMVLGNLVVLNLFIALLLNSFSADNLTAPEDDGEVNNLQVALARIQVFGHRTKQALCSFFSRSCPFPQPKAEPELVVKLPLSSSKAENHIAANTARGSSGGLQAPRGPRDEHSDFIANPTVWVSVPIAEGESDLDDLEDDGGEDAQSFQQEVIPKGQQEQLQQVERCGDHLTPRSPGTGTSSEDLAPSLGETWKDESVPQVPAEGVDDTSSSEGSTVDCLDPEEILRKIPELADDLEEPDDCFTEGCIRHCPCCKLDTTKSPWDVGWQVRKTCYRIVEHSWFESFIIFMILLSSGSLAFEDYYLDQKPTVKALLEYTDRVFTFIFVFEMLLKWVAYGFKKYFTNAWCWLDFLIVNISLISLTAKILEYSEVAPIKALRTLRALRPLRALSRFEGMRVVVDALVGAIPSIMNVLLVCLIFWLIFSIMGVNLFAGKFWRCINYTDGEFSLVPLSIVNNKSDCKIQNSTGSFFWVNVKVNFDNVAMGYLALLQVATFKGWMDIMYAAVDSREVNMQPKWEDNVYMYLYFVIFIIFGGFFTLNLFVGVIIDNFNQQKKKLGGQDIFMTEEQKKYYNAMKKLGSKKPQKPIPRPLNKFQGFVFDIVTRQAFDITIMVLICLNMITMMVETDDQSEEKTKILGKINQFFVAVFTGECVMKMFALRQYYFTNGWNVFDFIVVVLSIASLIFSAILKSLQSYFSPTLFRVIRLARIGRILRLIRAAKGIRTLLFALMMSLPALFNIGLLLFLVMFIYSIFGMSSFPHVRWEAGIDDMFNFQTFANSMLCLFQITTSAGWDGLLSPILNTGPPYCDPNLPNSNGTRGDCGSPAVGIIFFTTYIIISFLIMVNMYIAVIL
Summary of the method: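 HEK cells expressing truncated human NaV1.8, loaded with CC2-DMPE/DiSBAC6(3) FRET dyes, incubated 30 min at room temp with compound (0.625% DMSO), then electrically stimulated (1.25 A biphasic, 10 Hz, 10 s). Inhibition from 460/580 nm ratio Rf/Ri, normalised to positive and DMSO controls.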

**Q.** With [2H]C([2H])([2H])Oc1c(Oc2ccc(OC(F)(F)F)c(F)c2C(=O)Nc2cc(C(N)=O)ncc2C)ccc(OC(F)(F)F)c1F [Compound 231, 4-[[2-Fluoro-6-[3-fluoro-2-(trideuteriomethoxy)-4-(trifluoromethoxy)phenoxy]-3-(trifluoromethoxy)benzoyl]amino]-5-methyl-pyridine-2-carboxamide] as the compound, how does the pIC50 read?
**A.** The pIC50 was 8.05.

**Q.** How did the pIC50 turn out when [2H]C([2H])([2H])c1c(Oc2ccc(C(F)(F)F)c(F)c2C(=O)Nc2ccnc(C(N)=O)c2)ccc(OC(F)(F)F)c1F [Compound 232, 4-[[2-Fluoro-6-[3-fluoro-2-(trideuteriomethyl)-4-(trifluoromethoxy)phenoxy]-3-(trifluoromethyl)benzoyl]amino]pyridine-2-carboxamide] was run?
**A.** The pIC50 was 7.77.

**Q.** With [2H]C([2H])([2H])Oc1c(Oc2cc(Cl)c(C(F)F)c(OC)c2C(=O)Nc2ccnc(C(N)=O)c2)ccc(OC(F)(F)F)c1F [Compound 233] as the compound, how does the pIC50 read?
**A.** Its pIC50 is 8.40.

**Q.** [2H]C([2H])([2H])Oc1c(Oc2cc(Cl)c(C(F)F)c(F)c2C(=O)Nc2ccnc(C(N)=O)c2)ccc(OC(F)(F)F)c1F [Compound 234, 4-[[4-Chloro-3-(difluoromethyl)-2-fluoro-6-[3-fluoro-2-(trideuteriomethoxy)-4-(trifluoromethoxy)phenoxy]benzoyl]amino]pyridine-2-carboxamide] was tested. Which pIC50 did it give?
**A.** Its pIC50 is 8.40.

**Q.** With [2H]C([2H])([2H])Oc1c(Oc2ccc(C(F)F)c(F)c2C(=O)Nc2ccnc(C(N)=O)c2)ccc(OC(F)(F)F)c1F [Compound 235, 4-[[3-(Difluoromethyl)-2-fluoro-6-[3-fluoro-2-(trideuteriomethoxy)-4-(trifluoromethoxy)phenoxy]benzoyl]amino]pyridine-2-carboxamide] as the compound, how does the pIC50 read?
**A.** Its pIC50 is 8.30.

**Q.** [2H]C([2H])([2H])Oc1c(Oc2ccc(C(F)F)c(F)c2C(=O)Nc2ccc(C(N)=O)nc2)ccc(OC(F)(F)F)c1F [Compound 236, 5-[[3-(Difluoromethyl)-2-fluoro-6-[3-fluoro-2-(trideuteriomethoxy)-4-(trifluoromethoxy)phenoxy]benzoyl]amino]pyridine-2-carboxamide] was tested. Which pIC50 did it give?
**A.** Its pIC50 is 7.35.

**Q.** How did the pIC50 turn out when [2H]C([2H])([2H])Oc1c(Oc2ccc(C(F)F)c(F)c2C(=O)Nc2cc(C(N)=O)ncc2C)ccc(OC(F)(F)F)c1F [Compound 237, 4-[[3-(Difluoromethyl)-2-fluoro-6-[3-fluoro-2-(trideuteriomethoxy)-4-(trifluoromethoxy)phenoxy]benzoyl]amino]-5-methyl-pyridine-2-carboxamide] was run?
**A.** Its pIC50 is 7.92.

**Q.** How did the pIC50 turn out when COc1cc(OC(F)(F)F)ccc1Oc1cc(C(F)(F)F)ncc1C(=O)Nc1ccc(C)c(C(N)=O)c1 [Compound 238, N-(3-carbamoyl-4-methyl-phenyl)-4-[2-methoxy-4-(trifluoromethoxy)phenoxy]-6-(trifluoromethyl)pyridine-3-carboxamide] was run?
**A.** The pIC50 was 6.40.

**Q.** COc1cc(OC(F)(F)F)ccc1Oc1cc(C(F)(F)F)ncc1C(=O)Nc1ccc(OC)c(C(N)=O)c1 [Compound 239, N-(3-carbamoyl-4-methoxy-phenyl)-4-[2-methoxy-4-(trifluoromethoxy)phenoxy]-6-(trifluoromethyl)pyridine-3-carboxamide] was tested. Which pIC50 did it give?
**A.** Its pIC50 is 5.57.

**Q.** With [2H]C([2H])([2H])Oc1c(Oc2ccc(Cl)c(F)c2C(=O)Nc2cc(C(N)=O)ncc2C)ccc(OC(F)(F)F)c1F [Compound 240, 4-[[3-chloro-2-fluoro-6-[3-fluoro-2-(trideuteriomethoxy)-4-(trifluoromethoxy)phenoxy]benzoyl]amino]-5-methyl-pyridine-2-carboxamide] as the compound, how does the pIC50 read?
**A.** Its pIC50 is 7.96.

**Q.** With NC(=O)c1cc(NC(=O)c2c(Oc3ccc(OC(F)(F)F)c(F)c3)ccc(OC(F)(F)F)c2F)ccn1 [Compound 241, 4-[[2-fluoro-6-[3-fluoro-4-(trifluoromethoxy)phenoxy]-3-(trifluoromethoxy)benzoyl]amino]pyridine-2-carboxamide] as the compound, how does the pIC50 read?
**A.** The pIC50 was 7.42.

**Q.** Cc1cnc(C(N)=O)cc1NC(=O)c1c(Oc2ccc(OC(F)(F)F)cc2)ccc(C(F)(F)F)c1F [Compound 242, 4-[[2-fluoro-6-[4-(trifluoromethoxy)phenoxy]-3-(trifluoromethyl)benzoyl]amino]-5-methyl-pyridine-2-carboxamide] was tested. Which pIC50 did it give?
**A.** Its pIC50 is 7.36.

**Q.** How did the pIC50 turn out when NC(=O)c1cc(NC(=O)c2c(Oc3ccc(OC(F)(F)F)cc3)ccc(OC(F)(F)F)c2F)ccn1 [Compound 243, 4-[[2-fluoro-3-(trifluoromethoxy)-6-[4-(trifluoromethoxy)phenoxy]benzoyl]amino]pyridine-2-carboxamide] was run?
**A.** The pIC50 was 7.62.

**Q.** With Cc1cnc(C(N)=O)cc1NC(=O)c1c(Oc2ccc(OC(F)(F)F)cc2)ccc(Cl)c1F [Compound 244, 4-[[3-chloro-2-fluoro-6-[4-(trifluoromethoxy)phenoxy]benzoyl]amino]-5-methyl-pyridine-2-carboxamide] as the compound, how does the pIC50 read?
**A.** The pIC50 was 7.14.

**Q.** Cc1cnc(C(N)=O)cc1NC(=O)c1c(Oc2ccc(OC(F)(F)F)c(F)c2)ccc(Cl)c1F [Compound 245, 4-[[3-chloro-2-fluoro-6-[3-fluoro-4-(trifluoromethoxy)phenoxy]benzoyl]amino]-5-methyl-pyridine-2-carboxamide] was tested. Which pIC50 did it give?
**A.** Its pIC50 is 7.44.

**Q.** With Cc1cnc(C(N)=O)cc1NC(=O)c1c(Oc2ccc(OC(F)(F)F)c(F)c2)ccc(C(F)(F)F)c1F [Compound 246, 4-[[2-fluoro-6-[3-fluoro-4-(trifluoromethoxy)phenoxy]-3-(trifluoromethyl)benzoyl]amino]-5-methyl-pyridine-2-carboxamide] as the compound, how does the pIC50 read?
**A.** Its pIC50 is 7.68.

**Q.** NC(=O)c1ccc(NC(=O)c2c(Oc3ccc(OC(F)(F)F)cc3)ccc(C(F)(F)F)c2F)cc1 [Compound 264, N-(4-carbamoylphcnyl)-2-fluoro-6-(4-(trifluoromethoxy)phenoxy)-3-(trifluoromethyl)benzamide] was tested. Which pIC50 did it give?
**A.** The pIC50 was 7.27.

**Q.** CNC(=O)c1cc(NC(=O)c2cnc(C(F)(F)F)cc2Oc2ccc(OC(F)(F)F)cc2OC)cc(C)n1 [Compound 265, 4-[[4-[2-methoxy-4-(trifluoromethoxy)phenoxy]-6-(trifluoromethyl)pyridine-3-carbonyl]amino]-N,6-dimethyl-pyridine-2-carboxamide] was tested. Which pIC50 did it give?
**A.** Its pIC50 is 5.84.

**Q.** How did the pIC50 turn out when N#Cc1cc(F)ccc1Oc1ccc(C(F)(F)F)c(F)c1C(=O)Nc1ccc(F)c(C(N)=O)c1 [Compound 295, N-(3-carbamoyl-4-fluoro-phenyl)-6-(2-cyano-4-fluoro-phenoxy)-2-fluoro-3-(trifluoromethyl)benzamide] was run?
**A.** The pIC50 was 6.70.

**Q.** With COc1nc(Cl)ccc1Oc1ccc(C(F)(F)F)c(F)c1C(=O)Nc1ccnc(C(N)=O)c1 [Compound 303, 4-(6-((6-chloro-2-methoxypyridin-3-yl)oxy)-2-fluoro-3-(trifluoromethyl)benzamido)picolinamide] as the compound, how does the pIC50 read?
**A.** The pIC50 was 6.72.

biological target: T1, truncated form of human NaV 1.8 with full channel activity; assay: E-VIPR Assay Method B for detecting and measuring Nav inhibition (HEK cells, membrane potential FRET dyes, electrical stimulation); assay type: cell-based; settings: HEK cells expressing human NaV 1.8, Table 20B, read-out: Nav 1.8 MedChem Optical Assay EVIPR Assay Method B HS IC50
From the text: [formula] where X is the ratio response of the test compound. […] E-VIPR Assay Method B for Detecting and Measuring Nav Inhibition Properties Sodium ion channels are voltage-dependent proteins that can be activated by inducing membrane voltage changes by applying electric fields. The electrical stimulation instrument and methods of use, referred to as E-VIPR, are described in International Publication No. WO 2002/008748 A3 and C.-J. Huang et al. Characterization of voltage-gated sodium channel blockers by electrical stimulation and fluorescence detection of membrane potential, 24 Nature Biotech. 439-46 (2006), both of which are incorporated by reference in their entirety. The instrument comprises a microtiter plate handler, an optical system for exciting the coumarin dye while simultaneously recording the coumarin and oxonol emissions, a waveform generator, a current- or voltage-controlled amplifier, and parallel electrode pairs that are inserted into assay plate wells. Under integrated computer control, this instrument passes user-programmed electrical stimulus protocols to cells within the wells of the microtiter plate. […] Sigma #F4135), 1% NEAA (Non-Essential Amino Acids, Life Tech #11140), 1% HEPES (Life Tech #15630), 1% Pen-Strep (Penicillin-Streptomycin; […] Cells were expanded in vented cap flasks, with 95% humidity and 5% CO2. Reagents and Stock Solutions: • 100 mg/mL Pluronic F-127 (Sigma #P2443), in dry DMSO • Compound Plates: […] 5% KIR 2.1 Bacmam virus (produced in-house), prepared as described in Section 3.3 of J. A. Fornwald et al., Gene Expression in Mammalian Cells Using BacMam, a Modified Baculovirus System, 1350 Methods in Molecular Biology 95-116 (2016), the entire contents of which are incorporated by reference. • 5 mM DiSBAC6(3) (a voltage sensitive oxonol acceptor) (Aurora #00-100-010) in dry DMSO • 5 mM CC2-DMPE (a membrane-bound coumarin phospholipid FRET donor) (Aurora #00-100-008) in dry DMSO • 89 mM VABSC-1 in H2O. […] The solution was made by adding 10% Pluronic F127 stock equal to combined volumes of CC2-DMPE and DiSBAC6(3). The order of preparation was first mix Pluronic and CC2-DMPE, then add DiSBAC6(3), then while vortexing add Bath1/β-Cyclodextrin. […] Assay Protocol: […] Final DMSO concentration for all wells in the assay was 0.625% (0.75% DMSO was supplemented to the Compound Loading Buffer for a final DMSO concentration of 0.625%). 2) Hexyl Dye Solution was prepared. 3) Cell plates were prepared. On the day of the assay, the media was aspirated, and the cells were washed three times with 80 μL of Bath-1 buffer, maintaining 25 μL residual volume in each well. 4) 25 μL per well of Hexyl Dye Solution was dispensed into the cell plates. The cells were incubated for 20 minutes at room temp or ambient conditions in darkness. 5) 80 μL per well of Compound Loading Buffer was dispensed into compound plates. […] The mixture was incubated for 30 minutes at room temp/ambient conditions. […] A pre-stimulus recording was performed for 0.5 seconds to obtain the un-stimulated intensities baseline. The stimulatory waveform was followed by 0.5 seconds of post-stimulation recording to examine the relaxation to the resting state. Data Analysis: Data were analyzed and reported as normalized ratios of emission intensities measured in the 460 nm and 580 nm channels. The response as a function of time was reported as the ratios obtained using the following formula: [formula] The data were further reduced by calculating the initial (Ri) and final (Rf) ratios. These were the average ratio values during part or all of the pre-stimulation period and during sample points during the stimulation period. The fluorescence ratio (Rf/Ri) was then calculated and reported as a function of time. Control responses were obtained by performing assays in the presence of the positive control, and in the absence of pharmacological agents (DMSO vehicle negative control). Responses to the negative (N) and positive (P) controls were calculated as above. […]

**Q.** How did the pIC50 turn out when COc1cc(Cl)ccc1Oc1cc(C(F)(F)C(F)(F)F)ccc1C(=O)Nc1cccc(C(N)=O)c1 [Compound 247, N-(3-carbamoylphenyl)-2-(4-chloro-2-methoxyphenoxy)-4-(1,1,2,2,2-pentafluoroethyl)benzamide] was run?
**A.** The pIC50 was 7.48.
